Assay results taken from BigSolDB 2.1.

CCCCc1nc(Cl)c(CO)n1Cc1ccc(-c2ccccc2-c2nnn[n-]2)cc1.[K+]
solubility (mole fraction)
Conditions	in cyclohexane	in ethanol	in ethyl acetate	in isopropanol	in methanol	in n-butyl acetate	in n-pentanol	in n-propanol
293.15 K	3.4e-05	0.0381	0.00251	0.0027	0.0277	0.00271	0.0446	0.026
303.15 K	2.87e-05	0.0473	0.00152	0.00279	0.0375	0.00238	0.0311	0.0272
313.15 K	3.05e-05	0.0547	0.00252	0.00413	0.0445	0.000968	0.0287	0.0299
323.15 K	2.72e-05	0.0702	0.00138	0.00547	0.0483	0.00121	0.0234	0.0376
333.15 K	2.88e-05	0.0739	0.00288	0.00696	0.0508	0.00193	0.0205	0.0452
343.15 K	2.59e-05	0.0785	0.00279	0.0117	0.0533	0.000907	0.0218	0.0499
